Source: publication PMC7377239, “Cardiovascular Effects of Polychlorinated Biphenyls and Their Major Metabolites” (Environmental Health Perspectives, 2020)
Read-outs that look alike come from different tables or passages of the source.

Legend:
[1] = tested on: iCell endothelial cells (human iPSC-derived ECs); experiment: Tube formation (tubulogenesis) assay in iCell endothelial cells, 18 h; format: cell-based; settings: Homo sapiens, Endothelial cell, 18 hr; for activity at 0.1 µM: 0.10 µM
Outline: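 iCell ECs (passages 1–5) seeded 7,500 cells/well on reduced-growth-factor Geltrex in starvation medium, exposed overnight at 37°C to compounds in triplicate concentration–response (0.5% DMSO vehicle). Calcein AM staining, 4× imaging, angiogenesis image analysis; readouts normalized to vehicle, four-parameter logistic fit, POD at 1 SD of vehicle; 100 μM assigned NOAEL if no response.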

[2] = tested on: HUVECs; experiment: High-content imaging cytotoxicity in HUVECs, 24 h; format: cell-based, human; settings: Homo sapiens, HUVEC, 24 h; for viability at 0.01 µM / activity at 0.01 µM / viability at 0.1 µM / activity at 0.1 µM / viability at 1 µM / activity at 1 µM / viability at 10 µM / activity at 10 µM / viability at 100 µM / activity at 100 µM: 0.00 µM = 100.00; for viability at 0.1 µM / activity at 0.1 µM: 0.10 µM
Outline: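 Point-of-departure values derive from four-parameter logistic fits of vehicle-normalized imaging phenotypes (Hoechst 33342, MitoTracker Orange, calcein AM). The fits follow 24 h exposure of HUVEC monolayers at 37°C and 5% CO2, with a top tested concentration of 100μM.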

[3] = iPSC-EC tube formation, 0.00 µM control = 100.00, read-out: endo.mtl.18hr
[4] = iPSC-EC tube formation, 0.00 µM control = 100.00, read-out: endo.tlps.18hr
[5] = iPSC-EC tube formation, 0.00 µM control = 100.00, read-out: endo.tta.18hr
[6] = iPSC-EC tube formation, 0.00 µM control = 100.00, read-out: endo.ttl.18hr
[7] = HUVECs, 24 hr, read-out: huvec.cyto.24hr
[8] = HUVECs, 24 hr, read-out: huvec.mito.24hr
[9] = HUVECs, 24 hr, read-out: huvec.mitoint.24hr
[10] = HUVECs, 24 hr, read-out: huvec.nma.24hr
[11] = HUVECs, 24 hrs, read-out: huvec.tc.24hrs

`Oc1ccc(-c2ccc(Cl)cc2)cc1` [4'-OH PCB3] was tested, and the activity at 0.01 µM [1, 3] was 87.5%, the activity at 0.01 µM [1, 4] was 80.1% and the activity at 0.01 µM [1, 5] was 97.5%. The activity at 0.01 µM [1, 6] was 93.3%, the activity at 0.1 µM [1, 3] was 89.4% and the activity at 0.1 µM [1, 4] was 84.6%. The activity at 0.1 µM [1, 5] was 89.9%, the activity at 0.1 µM [1, 6] was 86.6% and the activity at 1 µM [1, 3] was 90.3%. The activity at 1 µM [1, 4] was 73.5%, the activity at 1 µM [1, 5] was 82.7% and the activity at 1 µM [1, 6] was 81.3%. The activity at 10 µM [1, 3] was 55.5%, the activity at 10 µM [1, 4] was 31.4% and the activity at 10 µM [1, 5] was 35.4%. It also gave an activity at 10 µM [1, 6] of 35%, an activity at 100 µM [1, 3] of 49.2% and an activity at 100 µM [1, 4] of 11.3%. It also gave an activity at 100 µM [1, 5] of 0.34%, an activity at 100 µM [1, 6] of 0.48% and a minimal effective concentration ([1]; iPSC-EC tube formation, top concentration 100.00 µM, read-out: endo.mtl.18hr POD) of 1.21 µM. The minimal effective concentration ([1]; iPSC-EC tube formation, top concentration 100.00 µM, read-out: endo.tlps.18hr POD) was 0.19 µM, the minimal effective concentration ([1]; iPSC-EC tube formation, top concentration 100.00 µM, read-out: endo.tta.18hr POD) was 1.16 µM and the minimal effective concentration ([1]; iPSC-EC tube formation, top concentration 100.00 µM, read-out: endo.ttl.18hr POD) was 1.12 µM. It also gave a viability at 0.01 µM [2, 7] of 86.4%, an activity at 0.01 µM [2, 8] of 85.6% and an activity at 0.01 µM [2, 9] of 96.8%. For the same molecule, the activity at 0.01 µM [2, 10] was 96.6%, the viability at 0.1 µM [2, 7] was 96.6% and the activity at 0.1 µM [2, 8] was 95.3%. For the same molecule, the activity at 0.1 µM [2, 9] was 115%, the activity at 0.1 µM [2, 10] was 97.7% and the viability at 1 µM [2, 7] was 97.8%. For the same molecule, the activity at 1 µM [2, 8] was 97.4%, the activity at 1 µM [2, 9] was 107% and the activity at 1 µM [2, 10] was 102%. It also gave a viability at 10 µM [2, 7] of 92.7%, an activity at 10 µM [2, 8] of 86.8% and an activity at 10 µM [2, 9] of 95.9%. The activity at 10 µM [2, 10] was 92.6%, the viability at 100 µM [2, 7] was 73.5% and the activity at 100 µM [2, 8] was 36.5%. The activity at 100 µM [2, 9] was 11.1%, the activity at 100 µM [2, 10] was 80.7% and the minimal effective concentration ([2]; HUVECs, 24 hr, top concentration 100.00 µM, read-out: huvec.cyto.24hr POD) was 7.01 µM. The minimal effective concentration ([2]; HUVECs, 24 hr, top concentration 100.00 µM, read-out: huvec.mito.24hr POD) was 3.9 µM, the minimal effective concentration ([2]; HUVECs, 24 hr, top concentration 100.00 µM, read-out: huvec.mitoint.24hr POD) was 11.2 µM and the minimal effective concentration ([2]; HUVECs, 24 hr, top concentration 100.00 µM, read-out: huvec.nma.24hr POD) was 6.91 µM. It also gave a viability at 0.01 µM [2, 11] of 86.4%, a viability at 0.1 µM [2, 11] of 96.6% and a viability at 1 µM [2, 11] of 97.8%. It also gave a viability at 10 µM [2, 11] of 93.3%, a viability at 100 µM [2, 11] of 77.9% and a minimal effective concentration ([2]; HUVECs, 24 hrs, top concentration 100.00 µM, read-out: huvec.tc.24hrs POD) of 7.01 µM.
With `Clc1cccc(-c2cccc(Cl)c2)c1` [PCB 11, 3,3′-Dichlorobiphenyl] the minimal effective concentration ([1]; endothelial cells (endo), tube formation mtl, read-out: POD endo.mtl.18hr) was 100 µM, the minimal effective concentration ([1]; endothelial cells (endo), tube formation tlps, read-out: POD endo.tlps.18hr) was 100 µM and the minimal effective concentration ([1]; endothelial cells (endo), tube formation tta, read-out: POD endo.tta.18hr) was 100 µM. The minimal effective concentration ([1]; endothelial cells (endo), tube formation ttl, read-out: POD endo.ttl.18hr) was 100 µM, the minimal effective concentration ([2]; cyto, 24 hr, read-out: POD huvec.cyto.24hr) was 11.2 µM and the minimal effective concentration ([2]; mito, 24 hr, read-out: POD huvec.mito.24hr) was 9.68 µM. It also gave a minimal effective concentration ([2]; mitoint, 24 hr, read-out: POD huvec.mitoint.24hr) of 7.62 µM, a minimal effective concentration ([2]; nma, 24 hr, read-out: POD huvec.nma.24hr) of 9.3 µM and a minimal effective concentration ([2]; tc, 24 hr, read-out: POD huvec.tc.24hr) of 11.2 µM.
